Experimental data taken from ChEMBL document CHEMBL1128323, “Antifungal agents. 9. 3-Aryl-4-[alpha-(1H-imidazol-1-yl)arylmethyl]pyrroles: a new class of potent anti-Candida agents” (1995).
≈ marks a conversion by molar mass, not a printed value.

What was measured:
Format in all cases: functional
[1] = system: Candida; assay: Inhibitory activity against Candida. species. (40 clinical isolates), determined at pH-5.8
[2] = system: Candida; assay: Resistance against all Candida. species (40 clinical isolates) at 256 micro g/mL (pH=5.8). Activity is expressed as R%.
[3] = system: Candida albicans; assay: 50% inhibitory activity against Candida albicans (40 clinical isolates) determined at pH-5.8
[4] = system: Candida albicans; assay: Inhibitory activity against Candida albicans (40 clinical isolates), determined at pH-5.8
[5] = system: Candida; assay: 50% inhibitory activity against the Candida. species (40 clinical isolates) was determined at pH-7.2
[6] = system: Candida; assay: Inhibitory activity against Candida. species. (40 clinical isolates), determined at pH-7.2
[7] = system: Candida; assay: Percent resistance against all Candida. species (40 clinical isolates) at 256 micro g/mL (pH=7.2), activity is expressed as R%.
[8] = system: Candida albicans; assay: 50% inhibitory activity against Candida albicans (40 clinical isolates) determined at pH-7.2
[9] = system: Candida albicans; assay: Percent resistance against Candida albicans (40 clinical isolates) at 256 micro g/mL (pH=5.8), activity is expressed as R%.
[10] = system: Candida albicans; assay: Inhibitory activity against the Candida albicans (40 clinical isolates), determined at pH-7.2
[11] = system: Candida; assay: 90% inhibitory activity against Candida. species (40 clinical isolates) determined at pH-7.2
[12] = system: Candida; assay: Inhibitory activity against Candida. species (40 clinical isolates), determined at pH-5.8
[13] = system: Candida albicans; assay: Inhibitory activity against Candida albicans (40 clinical isolates), determined at pH-7.2
[14] = system: Candida albicans; assay: Resistance against Candida. albicans (40 clinical isolates) at 256 ug/mL (pH=7.2), activity is expressed as R%.
[15] = system: Candida albicans; assay: Inhibitory activity against the Candida albicans (40 clinical isolates), determined at pH-5.8
[16] = system: Candida; assay: 90% inhibitory activity against the Candida. species (40 clinical isolates) was determined at pH-7.2
[17] = Candida albicans, read-out: MIC50

`O=[N+]([O-])c1ccc(C(c2c[nH]cc2-c2ccc(Cl)cc2Cl)n2ccnc2)cc1` (centres undefined) gave an MIC [1] of 30.2 µg/mL (≈ 73.1 µM), an R [2] of 0% and an MIC50 [3] of 16 µg/mL (≈ 38.7 µM). For the same compound, the MIC [4] was 22.9 µg/mL (≈ 55.4 µM), the MIC50 [5] was 256 µg/mL (≈ 619 µM) and the MIC [6] was greater than 207 µg/mL. The R [7] was 30%, the MIC50 [8, 17] was 32 µg/mL (≈ 77.4 µM) and the R [9] was 0%. The MIC90 [10] was 64 µg/mL (≈ 155 µM), the MIC90 [11] was greater than 256 µg/mL and the MIC50 [12] was 32 µg/mL (≈ 77.4 µM). For the same compound, the MIC90 [12] was 32 µg/mL (≈ 77.4 µM), the MIC [13] was 38.5 µg/mL (≈ 93.2 µM) and the R [14] was 0%. It also gave an MIC90 [15] of 64 µg/mL (≈ 155 µM).

`Cc1ccc(C(c2c[nH]cc2-c2ccccc2Cl)n2ccnc2)cc1` (centres undefined) showed an MIC [1] of 41.7 µg/mL (≈ 120 µM), an R [2] of 0% and an MIC50 [3] of 32 µg/mL (≈ 92 µM). It also gave an MIC [4] of 35.4 µg/mL (≈ 102 µM), an MIC50 [5] of 32 µg/mL (≈ 92 µM) and an MIC [6] of 30.1 µg/mL (≈ 86.5 µM). For the same compound, the R [7] was 0%, the MIC50 [8, 17] was 4 µg/mL (≈ 11.5 µM) and the R [9] was 0%. The MIC90 [10] was 64 µg/mL (≈ 184 µM), the MIC90 [11] was 32 µg/mL (≈ 92 µM) and the MIC50 [12] was 32 µg/mL (≈ 92 µM). It also gave an MIC90 [12] of 64 µg/mL (≈ 184 µM), an MIC [13] of 13.2 µg/mL (≈ 37.9 µM) and an R [14] of 0%. The MIC90 [15] was 64 µg/mL (≈ 184 µM).

For `Clc1ccccc1-c1c[nH]cc1C(c1ccc(-n2cccc2)cc1)n1ccnc1` (centres undefined), the MIC [1] was 30.2 µg/mL (≈ 75.7 µM), the R [2] was 0% and the MIC50 [3] was 8 µg/mL (≈ 20.1 µM). The MIC [4] was 20.5 µg/mL (≈ 51.4 µM), the MIC50 [5] was 16 µg/mL (≈ 40.1 µM) and the MIC [6] was 24.1 µg/mL (≈ 60.4 µM). For the same compound, the R [7] was 0%, the MIC50 [8, 17] was 8 µg/mL (≈ 20.1 µM) and the R [9] was 0%. The MIC90 [10] was 64 µg/mL (≈ 160 µM), the MIC90 [11] was 64 µg/mL (≈ 160 µM) and the MIC50 [12] was 32 µg/mL (≈ 80.2 µM). The MIC90 [12] was 32 µg/mL (≈ 80.2 µM), the MIC [13] was 25.3 µg/mL (≈ 63.4 µM) and the R [14] was 0%. It also gave an MIC90 [15] of 16 µg/mL (≈ 40.1 µM).

Work on `Fc1ccc(C(c2c[nH]cc2-c2ccccc2)n2ccnc2)cc1` (centres undefined) yielded an MIC [1] of 99.5 µg/mL (≈ 314 µM), an R [2] of 0% and an MIC [4] of 71.2 µg/mL (≈ 224 µM). It also gave an MIC50 [5] of 64 µg/mL (≈ 202 µM), an MIC [6] of 74.5 µg/mL (≈ 235 µM) and an R [7] of 0%. For the same compound, the MIC50 [8] was 64 µg/mL (≈ 202 µM), the MIC50 [8, 17] was 32 µg/mL (≈ 101 µM) and the R [9] was 0%. For the same compound, the MIC90 [10] was 64 µg/mL (≈ 202 µM), the MIC50 [12] was 64 µg/mL (≈ 202 µM) and the MIC90 [12] was 128 µg/mL (≈ 403 µM). The MIC [13] was 55.1 µg/mL (≈ 174 µM), the R [14] was 0% and the MIC90 [16] was 128 µg/mL (≈ 403 µM). The MIC90 [15] was 128 µg/mL (≈ 403 µM).

Compound `Clc1ccc(-c2c[nH]cc2C(c2ccc(Cl)c(Cl)c2)n2ccnc2)cc1Cl` (centres undefined) has an MIC [1] greater than 328 µg/mL, an R [2] of 50% and an MIC50 [3] of 8 µg/mL (≈ 18.3 µM). For the same compound, the MIC [4] was 9.2 µg/mL (≈ 21 µM), the MIC50 [5] was greater than 256 µg/mL and the MIC [6] was greater than 309 µg/mL. For the same compound, the R [7] was 50%, the MIC50 [8, 17] was 8 µg/mL (≈ 18.3 µM) and the R [9] was 0%. The MIC90 [10] was 32 µg/mL (≈ 73.2 µM), the MIC90 [11] was greater than 256 µg/mL and the MIC50 [12] was 256 µg/mL (≈ 586 µM). For the same compound, the MIC90 [12] was greater than 256 µg/mL, the MIC [13] was 14 µg/mL (≈ 31.9 µM) and the R [14] was 0%. For the same compound, the MIC90 [15] was 32 µg/mL (≈ 73.2 µM).

Work on `Clc1ccc(C(c2c[nH]cc2-c2ccc(Cl)c(Cl)c2)n2ccnc2)c(Cl)c1` (centres undefined) yielded an MIC [1] of 27.7 µg/mL (≈ 63.4 µM), an R [2] of 0% and an MIC50 [3] of 2 µg/mL (≈ 4.58 µM). The MIC [4] was 5.9 µg/mL (≈ 13.5 µM), the MIC50 [5] was 32 µg/mL (≈ 73.2 µM) and the MIC [6] was 38.2 µg/mL (≈ 87.4 µM). For the same compound, the R [7] was 0%, the MIC50 [8, 17] was 2 µg/mL (≈ 4.58 µM) and the R [9] was 0%. For the same compound, the MIC90 [10] was 16 µg/mL (≈ 36.6 µM), the MIC90 [11] was 32 µg/mL (≈ 73.2 µM) and the MIC50 [12] was 32 µg/mL (≈ 73.2 µM). It also gave an MIC90 [12] of 32 µg/mL (≈ 73.2 µM), an MIC [13] of 5.8 µg/mL (≈ 13.3 µM) and an R [14] of 0%. The MIC90 [15] was 16 µg/mL (≈ 36.6 µM).

For `Cc1ccc(C(c2c[nH]cc2-c2ccccc2)n2ccnc2)cc1` (centres undefined), the MIC [1] was 71 µg/mL (≈ 227 µM), the R [2] was 0% and the MIC [4] was 133 µg/mL (≈ 425 µM). It also gave an MIC50 [5] of 64 µg/mL (≈ 204 µM), an MIC [6] of 51.6 µg/mL (≈ 165 µM) and an R [7] of 0%. For the same compound, the MIC50 [8] was 64 µg/mL (≈ 204 µM), the MIC50 [8, 17] was 32 µg/mL (≈ 102 µM) and the R [9] was 0%. For the same compound, the MIC90 [10] was 64 µg/mL (≈ 204 µM), the MIC50 [12] was 64 µg/mL (≈ 204 µM) and the MIC90 [12] was 256 µg/mL (≈ 817 µM). For the same compound, the MIC [13] was 48.4 µg/mL (≈ 154 µM), the R [14] was 0% and the MIC90 [16] was 64 µg/mL (≈ 204 µM). For the same compound, the MIC90 [15] was 256 µg/mL (≈ 817 µM).

`Clc1ccc(-c2c[nH]cc2C(c2ccc(Cl)cc2Cl)n2ccnc2)c(Cl)c1` (centres undefined) was tested, and the MIC [1] was 23.4 µg/mL (≈ 53.5 µM), the R [2] was 0% and the MIC50 [3] was 2 µg/mL (≈ 4.58 µM). For the same compound, the MIC [4] was 7.4 µg/mL (≈ 16.9 µM), the MIC50 [5] was 256 µg/mL (≈ 586 µM) and the MIC [6] was 101 µg/mL (≈ 231 µM). For the same compound, the R [7] was 0%, the MIC50 [8, 17] was 8 µg/mL (≈ 18.3 µM) and the R [9] was 0%. For the same compound, the MIC90 [10] was 16 µg/mL (≈ 36.6 µM), the MIC90 [11] was 256 µg/mL (≈ 586 µM) and the MIC50 [12] was 32 µg/mL (≈ 73.2 µM). It also gave an MIC90 [12] of 32 µg/mL (≈ 73.2 µM), an MIC [13] of 20.6 µg/mL (≈ 47.1 µM) and an R [14] of 0%. It also gave an MIC90 [15] of 16 µg/mL (≈ 36.6 µM).

Work on `O=[N+]([O-])c1ccc(C(c2c[nH]cc2-c2ccccc2)n2ccnc2)cc1` (centres undefined) yielded an MIC [1] of 182 µg/mL (≈ 529 µM), an R [2] of 0% and an MIC50 [3] of 8 µg/mL (≈ 23.2 µM). The MIC [4] was 56.7 µg/mL (≈ 165 µM), the MIC50 [5] was 256 µg/mL (≈ 743 µM) and the MIC [6] was greater than 192 µg/mL. The R [7] was 20%, the MIC50 [8, 17] was 8 µg/mL (≈ 23.2 µM) and the R [9] was 0%. The MIC90 [10] was 64 µg/mL (≈ 186 µM), the MIC50 [12] was 128 µg/mL (≈ 372 µM) and the MIC90 [12] was greater than 256 µg/mL. For the same compound, the MIC [13] was 5.18 µg/mL (≈ 15 µM), the R [14] was 0% and the MIC90 [16] was 256 µg/mL (≈ 743 µM). For the same compound, the MIC90 [15] was 128 µg/mL (≈ 372 µM).
